Consider ten compounds from ChEMBL document CHEMBL4304785, “Recent advances of analogues of curcumin for treatment of cancer” (Eur J Med Chem, 2019).

What is called inhibition is how much of the control response was suppressed. Broadly, the IC50 is the concentration that gives 50% inhibition. Read a low IC50 as greater potency in that assay. In general, inhibition in vivo refers to how much of the control response was suppressed.

Assay [1] deals with MCF7R. Kind of assay: Cytotoxicity against human MCF7/R cells after 72 hrs in presence of curcumin by MTS assay relative to control. The class given is functional. (In general: Tetrazolium assays rely on reduction of a dye to a coloured formazan, in cell work by metabolically active cells.)
For assay [2], the system named is MCF7R. The assay is described as follows: Cytotoxicity against human MCF7/R cells at 10 uM after 72 hrs by MTS assay relative to control. The class given is functional.
For assay [3], the system named is MCF7R. The assay is described as follows: Cytotoxicity against human MCF7/R cells at 5 umol/L after 72 hrs by MTS assay relative to control. The class given is functional.
The nature of assay [4]: Cytotoxicity against human WRO cells at 10 uM after 72 hrs by MTS assay relative to control. The class given is functional.
Assay [5] can be described thus: Cytotoxicity against human WRO cells at 5 umol/L after 72 hrs by MTS assay relative to control. Format: functional.
Assay [6] can be described thus: Cytotoxicity against human WRO cells after 72 hrs in presence of curcumin by MTS assay relative to control. The class given is functional.
The subject of the next assay is SGC-7901. The assay is described as follows: Antiproliferative activity against human SGC7901 cells by MTT assay. Format: functional, cell-based.
Another assay concerns U-251. The assay is described as follows: Antiproliferative activity against human U251 cells by MTT assay. Format: functional, cell-based.
The subject of another assay is L02. Kind of assay: Antiproliferative activity against human HL7702 cells by MTT assay. Format: functional, cell-based.
Assay [7] deals with NCI-H460. The assay is described as follows: Antiproliferative activity against human H460 cells by MTT assay. Format: functional, cell-based.
The subject of a further assay is A549. Kind of assay: Cell cycle arrest in human A549 cells by propidium iodide staining-based flow cytometric method. The class given is functional. On the technique in general: A flow cytometer gives signals particle by particle.
The next assay concerns U-937. The assay is described as follows: Induction of apoptosis in human U937 cells relative to control. The class given is functional, cell-based.
The next assay relates to KB. The assay is described as follows: Cell cycle arrest in human KB cells by propidium iodide staining-based flow cytometric method. The class given is functional.
The next assay deals with 3LL cell line. Kind of assay: Induction of apoptosis in mouse 3LL cells relative to control. Format: functional, cell-based.
For a further assay, the system named is MCF7. The assay is described as follows: Cell cycle arrest in human MCF7 cells by propidium iodide staining-based flow cytometric method. Format: functional.
For the next assay, the system named is DU-145. The assay is described as follows: Cell cycle arrest in human DU145 cells by propidium iodide staining-based flow cytometric method. The class given is functional.
The nature of assay [8]: Induction of apoptosis in human SNUC5 cells relative to control. Format: functional, cell-based.
The test system of another assay is HL-60. Kind of assay: Induction of apoptosis in human HL60 cells relative to control. Format: functional, cell-based.
Assay [9] has as its system HT-1080. The assay is described as follows: Antioxidant activity in human HT1080 cells at 100 umol/L by measuring TBARS level by spectrophotometric method relative to control. The class given is functional.
The test system of the next assay is HepG2. Kind of assay: Induction of apoptosis in human HepG2 cells relative to control. Format: functional, cell-based.
The next assay has as its system K562. Kind of assay: Induction of apoptosis in human K562. The class given is functional, cell-based.
The target in a further assay is Tubulin. Kind of assay: Inhibition of tubulin polymerization (unknown origin). Format: protein-complex assay, Homo sapiens.
The next assay concerns ASPC1. Kind of assay: Antitumor activity against human Aspc-1 cells xenografted in athymic nude mouse assessed as reduction in tumor volume at 5 mg/kg after 35 days relative to control. Format: functional. The following applies: ASPC1, 840 h.
For assay [10], the system named is NCI-H460. The assay is described as follows: Cytotoxicity against human H460 cells after 48 hrs by MTT assay. The class given is functional, cell-based. The following applies: NCI-H460, 48 h.
Assay [11] is described as follows: Inhibition of cell invasion in human […] cells at 4 nmol/L after 24 hrs by crystal violet staining based transwell assay relative to control. The class given is functional.
Assay [12] deals with HT-144. The assay is described as follows: Cytotoxicity against human HT144 cells after 24 hrs by MTT assay. Format: functional, cell-based. Conditions: HT-144, 24 h.
For a further assay, the system named is MIA PaCa-2. Kind of assay: Cytotoxicity against human MIAPaCa2 cells after 48 hrs by MTT assay. Format: functional, cell-based. Conditions: MIA PaCa-2, 48 h.
Assay [13] deals with HT-144. The assay is described as follows: Cytotoxicity against human HT144 cells after 48 hrs by MTT assay. The class given is functional, cell-based. The following applies: HT-144, 48 h.
For assay [14], the system named is HT-1080. The assay is described as follows: Decrease in UPA expression in human HT1080 cells. The class given is functional, cell-based.
For another assay, the system named is MDA-MB-231. Kind of assay: Increase in MMP3 level in human MDA-MB-231 cells after 24 hrs by ELISA. The class given is functional, cell-based. The following applies: MDA-MB-231, 24 h. A general note: An ELISA detects its analyte on a solid surface through an enzyme-linked reagent.
A further assay deals with SK-OV-3. Kind of assay: Cell cycle arrest in human SKOV3 cells assessed as accumulation at G1 phase at 15 umol/L after 24 hrs by propidium iodide staining-based assay (reference value: 58.1%). Format: functional.
The next assay relates to SCC-25. The assay is described as follows: Cytotoxicity against human SCC25 cells after 72 hrs by MTT assay. The class given is functional, cell-based. The following applies: SCC-25, 72 h.
The test system of the next assay is A-431. Kind of assay: Cytotoxicity against human A431 cells after 72 hrs by MTT assay. Format: functional, cell-based. The following applies: A-431, 72 h.
The nature of assay [15]: Cytotoxicity against […] cells after 72 hrs by MTT assay. The class given is functional, cell-based. The following applies: B16, 72 h.
The nature of assay [16]: Cytotoxicity against human BCC cells after 72 hrs by MTT assay. Format: functional, cell-based.
For the next assay, the system named is A-375. Kind of assay: Cytotoxicity against human A375 cells after 72 hrs by MTT assay. The class given is functional, cell-based. The following applies: A-375, 72 h.
The test system of assay [17] is HT-1080. The assay is described as follows: Induction of DNA damage in human HT1080 cells assessed as formation of DNA breaks at 50 ug/ml by comet assay relative to control. The class given is functional.

With `COc1cc(/C=C/c2cc(/C=C/c3ccc(O)c(OC)c3)on2)ccc1O`, in the assay on MCF7R [1], the “inhibition (INH)” value was determined as 57.6%. In the assay on MCF7R [2], this compound registered an inhibition at 10 µM of 57.8%.
For `COc1cc(/C=C/c2cc(/C=C/c3ccc(O)c(OC)c3)[nH]n2)ccc1O` [CURCUMIN PYRAZOLE], the inhibition at 5 µM in the assay on MCF7R [3] worked out at 52.8%; in assay [5], 48.9%. In assay [4], this compound registered an inhibition at 10 µM of 48.2%. For the same compound, the “inhibition (INH)” value in [6] turned out to be 41%.
As for `O=C1/C(=C/c2ccccc2F)CNC/C1=C\c1ccccc1F`, the IC50 in the assay with SGC-7901 is 6.5 µM; in the assay with U-251, 4.5 µM; in the assay on L02, 5.8 µM; in the assay with NCI-H460 [7] it was 6 µM.
Turning to `C/C=C/c1ccc(O)c(OC)c1`, the 50% inhibitory concentration (IC50) is 33.5 µM with A549; 39.4 µM in the assay on U-937; 38.6 µM in the assay on KB; 89.6 µM in the assay with 3LL cell line; 40.7 µM with MCF7; 33.2 µM with DU-145. Moreover, the figures for the half-inhibitory concentration (IC50) (in [8]; with HL-60; with HepG2) were 129 µM, 23.7 µM and 119 µM, respectively. The same compound registered an Activity in the assay with HT-1080 [9] of 70%.
On to `O=C(/C=C/c1ccccc1)c1ccccc1` [CHALCONE], for which the results for the concentration for half-maximal inhibition (IC50) in the assay with K562 and at Tubulin were 4.3 µM and 620 µM, respectively.
`COc1cc(CNC(=O)CCCC/C=C/C(C)C)ccc1O` [CAPSAICIN]: the inhibition in vivo at 5 mg/kg in the assay on ASPC1 turned out to be 73%.
For the compound `O=C(O)/C=C/c1ccccc1` [CINNAMIC ACID], the concentration for half-maximal inhibition (IC50) with NCI-H460 [10] worked out at 2.1 µM; with HT-144 [12], 2.4 µM; in the assay on MIA PaCa-2, 1.33 µM; in the assay on HT-144 [13], 1.07 µM. For the same compound, 0.004 µM produced 60% inhibition in [11].
For `O=C(/C=C/c1ccc(O)cc1)CC(=O)/C=C/c1ccc(O)cc1` [BISDEMETHOXYCURCUMIN], the half-inhibitory concentration (IC50) in the assay on HT-1080 [14] was found to be 7 µM; in the assay with MDA-MB-231, 11 µM. In the assay with SK-OV-3, the Activity was found to be 79.7%.
With `COc1cc(CCC(=O)CCCCc2ccccc2)ccc1O`, the IC50 in the assay on SCC-25 worked out at 18.7 µM; in the assay with A-431 it was 13.3 µM; in [15], 40 µM; in assay [16] it was 11.3 µM; with A-375, 23.8 µM.
For the compound `O=C(O)/C=C/c1ccc(O)c(O)c1` [CAFFEIC ACID], in the assay on HT-1080 [17], the Activity turned out to be 85%.
